Data on 31 molecules can be found in patent US7977082B2, “Isomaltulose synthases, polynucleotides encoding them and uses therefor” (The University of Queensland of St. Lucia, priority 2001, dated 2011).

One data set deals with strain 68J. The experiment in a line: Growth of strain 68J with different carbon sources (BIOLOG GN). Type of data set: cell-based, Pantoea dispersa. Further details: scale not given here. The settings on record: relative values; 96-well plates (BIOLOG GN). The procedure: The morphological, cultural and biochemical features of strain 68J were determined in tests using E. coli (Top 10), K. oxytoca (JMP4505), E. rhapontici (WAC2928) as positive/negative controls. Gram stain, fermentation, catalase activity, pigment observation, and Simon's citrate tests were conducted according to Singleton (1999, Bacteria in Biology, Biotechnology and Medicine (5th edition). Wiley, New York). Oxidase activity by Kovac's reagent, indole production by Ehrlich's indole test, methyl red response, Voges-Proskauer reaction in Clark and Lub's medium, urea hydrolysis in Christensen's urea, lysine decarboxylase, ornithine decarboxylase and gelatin liquefaction were tested as described by MacFaddin (1979, Biochemical Tests for Identification of Medical Bacteria. Williams & Wilkins, Baltimore). Morphology, capsules and motility were observed microscopically. Carbon source utilization was tested in 96-well plates (BIOLOG GN).

A further data set has as its system P. dispersa 68J. Put plainly: Growth in BP medium with different sugars. The format is cell-based. The settings on record: 2% sugar added to BP medium, 18 h incubation at 30°C. The procedure: Isomaltulose production was tested using cells grown in LB and in a basal peptone medium (BP, comprising 1% BBL gelysate peptone and 0.5% NaCl, adjusted to pH 7.0 prior to autoclaving). Glucose, fructose, sucrose, lactose, maltose or isomaltulose was added to the cooled media, from a filter-sterilised stock. The media containing 4% (w/v) sucrose are referred to as SLB and SBP respectively.
Inoculum of 100 μL from a culture grown for 12 h in LB medium was added to 25 mL growth medium in a 250 mL flask. After 18 h at 30° C. on a shaker at 225 rpm, OD600 was used to measure growth. Cultures were diluted with growth medium to OD600=1.50 (approximately half the cell density of a saturated culture in SLB). Aliquots of 1 mL were harvested by centrifugation at 5000×g for 10 min and washed three times with 0.1 M citrate/phosphate buffer (pH 6.0). The cell pellets were resuspended in 0.4 mL of 0.1 M citrate/phosphate buffer (pH 6.0) containing 50% sucrose (w/v). Culture supernatant was filtered through a 0.2 μm filter (Pall Acrodisc), and 0.1 mL was mixed with 0.4 mL of 0.1 M citrate/phosphate buffer (pH 6.0) containing 50% sucrose (w/v), for parallel testing of culture filtrate and harvested cells in the SI assay.

For data set [1], the system named is E. rhapontici sucrose isomerase (SI). The conditions noted are these: Nagai et al., 1994; Véronèse and Perlot, 1998; cited from earlier work.
Data set [2] deals with K. plymuthica sucrose isomerase (SI). The conditions noted are these: Nagai et al., 1994; Véronèse and Perlot, 1998; cited from earlier work.
For data set [3], the system named is P. rubrum sucrose isomerase (SI). The conditions noted are these: Nagai et al., 1994; Véronèse and Perlot, 1998; cited from earlier work.
In data set [4] the test system is P. mesoacidophila sucrose isomerase (SI). The conditions noted are these: Nagai et al., 1994; Véronèse and Perlot, 1998; cited from earlier work.
Substrate in data set [5]: OC[C@H]1O[C@@](CO)(O[C@H]2O[C@H](CO)[C@@H](O)[C@H](O)[C@H]2O)[C@@H](O)[C@@H]1O
Put plainly: Sucrose isomerase kinetics, purified SI from P. dispersa 68J (isomaltulose production), with or without glucose/fructose. Type of data set: biochemical, Pantoea dispersa 68J. The conditions noted are these: other: sucrose, pH 6.0, 30° C., Lineweaver and Burk. As to the method: (§1) The pET24b vector introduces a carboxy-terminal 6×His tag (SEQ ID NO: 52) on expressed proteins, which were purified by adsorption to Ni-NTA agarose (Qiagen) and elution with 25 mM NaH2PO4, 150 mM NaCl, 125 mM imidazole buffer (pH8.0) following the manufacturer's instructions. For storage, the eluted solution was diluted with 50% glycerol. The purity of SI proteins was tested by SDS-PAGE as described below. A batch procedure using Ni-NTA agarose in suspension yielded predominantly (80-95%) SI with a background of several other protein bands. A procedure using Ni-NTA agarose in adsorption columns yielded preparations containing a single protein band. […]
(§2) Enzyme activities were measured by incubating 5 μl of purified enzyme with 95 μL of sucrose solution at a final concentration of 584 mM in 0.1 M citrate/phosphate buffer (pH 6.0) at 30° C. Sugar profiles in the reaction mix were analysed at intervals by CE as described previously. […]
(§3) SI activity was measured by incubating the purified enzyme with different sucrose concentrations (3, 6, 15, 58, 146, 292, 584, 877, 1169 and 1461 mM) under standard assay conditions, and also with addition of glucose, fructose or both to a final concentration of 277 mM. Data were analyzed according to the method of Lineweaver and Burk (Voet and Voet, 1995) to calculate Km and Vmax values.

Substrate in data set [6]: OC[C@H]1O[C@@](CO)(O[C@H]2O[C@H](CO)[C@@H](O)[C@H](O)[C@H]2O)[C@@H](O)[C@@H]1O
The experiment in a line: Sucrose isomerase kinetics, purified SI from Klebsiella sp. 14S (isomaltulose production), with or without glucose/fructose. The format is biochemical. The settings on record: other: sucrose, pH 6.0, 30° C., Lineweaver and Burk. The procedure:
as §1, §2, §3

“And” between values parts separate entries of the source, which are not always exact repeats. Equal values may be shown once. Residues, ends and D or L forms follow the SMILES beside them.

With 2,3-butynediol, the Growth in the data set on strain 68J is on record as 1.
Same read-out and setting: the same measure for `C[N+](C)(C)CC(O)CC(=O)[O-]` (racemic) [D,L-carnitine]: −10; for `CC(O)C(=O)O` (racemic) [D,L-lactic acid]: 365; for `O=P(O)(O)OCC(O)CO` (racemic) [D,L-α-glycerol phosphate]: −8.
`NCCO` [2-amino ethanol] yielded a Growth in the data set on strain 68J of −4.
On the same count and under the same terms, next, `OC[C@@H](O)C(O)[C@H](O)CO` [D-arabitol]: −11; `O=C1O[C@@H]([C@H](O)CO)[C@H](O)[C@H]1O` [D-galactonic acid lactone]: −7; `O=C(O)[C@H]1OC(O)[C@H](O)[C@@H](O)[C@@H]1O` (stereo partly drawn) [D-glucoronic acid]: 6.
Same read-out and setting: next, `N[C@@H](C(=O)O)[C@@H](O)[C@H](O)[C@H](O)CO` [D-glucosaminic acid]: 1.
On the same count and under the same terms, next, `OC[C@H]1O[C@H](OCC2O[C@@H](O)[C@H](O)[C@@H](O)[C@@H]2O)[C@H](O)[C@@H](O)[C@H]1O` (stereo partly drawn) [D-melibiose]: 6; `OC[C@H]1O[C@H](OC[C@H]2O[C@H](O[C@]3(CO)O[C@H](CO)[C@@H](O)[C@@H]3O)[C@H](O)[C@@H](O)[C@@H]2O)[C@H](O)[C@@H](O)[C@H]1O` [D-raffinose]: 330.
`OC[C@H]1O[C@H](O[C@H]2O[C@H](CO)[C@@H](O)[C@H](O)[C@H]2O)[C@H](O)[C@@H](O)[C@@H]1O` [D-trehalose] had a Growth in the data set with strain 68J of 619.
For `O=P(O)(O)O[C@H]1O[C@H](CO)[C@@H](O)[C@H](O)[C@H]1O` [Glucose-1-phosphate], in the data set on strain 68J, the Growth came out at 356.
Same read-out and setting: the same measure for `NCC(=O)N[C@@H](CC(=O)O)C(=O)O` [Glycyl-L-aspatic acid] (H-Gly-Asp-OH): −8; for `C[C@@H](O)[C@H](N)C(=O)O` [L-theronine]: −12.
As for `OC[C@H]1O[C@H](O[C@H]2[C@H](O)[C@@H](O)[C@H](O)O[C@@H]2CO)[C@H](O)[C@@H](O)[C@@H]1O` [Maltose], the “effect on growth of P. dispersa 68J” value in the data set with P. dispersa 68J is on record as “little effect”.
Still for that read-out and setting: the same measure for `OC[C@H]1O[C@@](CO)(O[C@H]2O[C@H](CO)[C@@H](O)[C@H](O)[C@H]2O)[C@@H](O)[C@@H]1O` [Sucrose]: “supported faster growth”.
In the data set on strain 68J, `O=C(CO)[C@@H](O[C@H]1O[C@H](CO)[C@@H](O)[C@H](O)[C@H]1O)[C@H](O)[C@H](O)CO` [Turanose] yielded a Growth of 23.
The same measure, in the same setting: next, `OC[C@H]1O[C@@H]2O[C@H]3[C@H](O)[C@@H](O)[C@@H](O[C@H]4[C@H](O)[C@@H](O)[C@@H](O[C@H]5[C@H](O)[C@@H](O)[C@@H](O[C@H]6[C@H](O)[C@@H](O)[C@@H](O[C@H]7[C@H](O)[C@@H](O)[C@@H](O[C@H]1[C@H](O)[C@H]2O)O[C@@H]7CO)O[C@@H]6CO)O[C@@H]5CO)O[C@@H]4CO)O[C@@H]3CO` [a-cyclodextrin]: 9.
The same measure, in the same setting: the same measure for `O=C(O)/C=C(/CC(=O)O)C(=O)O` [cis-aconitic acid]: 122.
For `OC[C@H]1OC(O)(CO)[C@@H](O)[C@@H]1O` (stereo partly drawn) [fructose], the Inhibition of activity entry in data set [1], in data set [2], in data set [3] and in data set [4] was “not” each time.
In turn, `OC[C@@H](O)[C@@H](O)CO` [i-erythritol] had a Growth in the data set on strain 68J of 0.
Consider `OC[C@H]1O[C@@H](O[C@H]2[C@H](O)[C@@H](O)C(O)O[C@@H]2CO)[C@H](O)[C@@H](O)[C@H]1O` (stereo partly drawn) [lactose], for which the “effect on growth of P. dispersa 68J” value with P. dispersa 68J is given as “little effect”.
With `O[C@H]1[C@H](O)[C@@H](O)[C@H](O)[C@@H](O)[C@H]1O` [m-inositol], the Growth in the data set with strain 68J was 611.
Same read-out and setting: next, `O=C(O)CCC(=O)C(=O)O` [α-keto glutanic acid]: 91; `CO[C@@H]1O[C@H](CO)[C@@H](O)[C@H](O)[C@H]1O` [β-methyl D-glucosidase]: 684.
Molecule `O=C(O)Cc1ccc(O)cc1` [ρ-hydroxy phenylacetic acid] gave a Growth in the data set on strain 68J of 5.
As for Tween40, the Growth in the data set with strain 68J stood at 25.
Same read-out and setting: the same measure for α-D-lactose lactulose: 12.

B1: Pantoea dispersa 68J sucrose isomerase (SI), mature, SEQ ID NO: 10, carboxy-terminal 6×His tag (SEQ ID NO: 52) (Pantoea dispersa) (protein)
chain: ATNIQKSADFPIWWKQAVFYQIYPRSFKDSNGDGIGDIPGIIEKLDYLKMLGVDAIWINPHYESPNTDNGYDISDYRKIMKEYGSMADFDRLVAEMNKRGMRLMIDIVINHTSDRHRWFVQSRSGKDNPYRDYYFWRDGKQGQAPNNYPSFFGGSAWQLDKQTDQYYLHYFAPQQPDLNWDNPKVRAELYDILRFWLDKGVSGLRFDTVATFSKIPGFPDLSKAQLKNFAEAYTEGPNIHKYIHEMNRQVLSKYNVATAGEIFGVPVSAMPDYFDRRREELNIAFTFDLIRLDRYPDQRWRRKPWTLSQFRQVISQTDRAAGEFGWNAFFLDNHDNPRQVSHFGDDSPQWRERSAKALATLLLTQRATPFIFQGAELGMTNYPFKNIEEFDDIEVKGFWNDYVASGKVNAAEFLQEVRMTSRDNSRTPMQWNDSVNAGFTQGKPWFHLNPNYKQINAAREVNKPDSVFSYYRQLINLRHQIPALTSGEYRDLDPQNNQVYAYTRILDNEKYLVVVNFKPEQLHYALPDNLTIASSLLENVHQPSLQENASTLTLAPWQAGIYKLN
Turning to B1, in data set [5], the Km is 46.6 mM and 47 mM; the Vmax amounted to 636.9 U mg^−1.

B2: Klebsiella sp. 14S sucrose isomerase (SI), carboxy-terminal 6×His tag (SEQ ID NO: 52) (Klebsiella planticola) (protein)
chain: APSVNQNIHVHKESEYPAWWKEAVFYQIYPRSFKDTNDDGIGDIRGIIEKLDYLKSLGIDAIWINPHYDSPNTDNGYDISNYRQIMKEYGTMEDFDNLVAEMKKRNMRLMIDVVINHTSDQHPWFIQSKSDKNNPYRDYYFWRDGKDNQPPNNYPSFFGGSAWQKDAKSGQYYLHYFARQQPDLNWDNPKVREDLYAMLRFWLDKGVSSMRFDTVATYSKIPGFPNLTPEQQKNFAEQYTMGPNIHRYIQEMNRKVLSRYDVATAGEIFGVPLDRSSQFFDPRRHELNMAFMFDLIRLDRDSNERWRHKSWSLSQFRQIISKMDVTVGKYGWNTFFLDNHDNPRAVSHFGDDRPQWREASAKALATITLTQRATPFIYQGSELGMTNYPFRQLNEFDDIEVKGFWQDYVQSGKVTATEFLDNVRLTSRDNSRTPFQWNDTLNAGFTRGKPWFHINPNYVEINAEREETREDSVLNYYKKMIQLRHHIPALVYGAYQDLNPQDNTVYAYTRTLGNERYLVVVNFKEYPVRYTLPANDAIEEVVIDTQQQATAPHSTSLSLSPWQAGVYKLR
Consider B2, for which, in data set [6], the Km is given as 81.6 mM and the Vmax came out at 99.8 U mg^−1.
